Test results: BindingDB's records for doi:10.7270/Q2DV1H7P (Burnham Center For Chemical Genomics, 2009)

Biological target: Runt-related transcription factor 1 (Homo sapiens, UniProt Q01196)
Assay: disruptors of Runt domain/CBFb-SMMHC interaction – biochemical, FRET, Cerulean-Runt, Venus-CBFb-SMMHC, uHTS, primary screen (AID 1434)
Settings: pH 7.4; 23 °C

Runt-related transcription factor 1, sequence (Q01196 whole entry, the tested form may be a part): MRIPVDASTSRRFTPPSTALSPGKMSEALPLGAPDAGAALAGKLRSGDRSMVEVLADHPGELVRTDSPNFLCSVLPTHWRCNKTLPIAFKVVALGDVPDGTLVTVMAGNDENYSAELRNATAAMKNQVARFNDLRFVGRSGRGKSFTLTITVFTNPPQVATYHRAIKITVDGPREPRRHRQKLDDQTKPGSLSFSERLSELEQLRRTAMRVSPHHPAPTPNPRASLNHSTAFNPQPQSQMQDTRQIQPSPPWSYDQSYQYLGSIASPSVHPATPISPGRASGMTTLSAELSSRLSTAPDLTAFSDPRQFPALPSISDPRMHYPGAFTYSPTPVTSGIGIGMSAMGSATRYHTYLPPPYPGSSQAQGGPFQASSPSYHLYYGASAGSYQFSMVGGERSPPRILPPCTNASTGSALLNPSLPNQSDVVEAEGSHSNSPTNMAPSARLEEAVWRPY

Row | SMILES | IC50 [µM]
1 | CN1c2ccsc2C(=O)C(C(=S)Nc2ccc(F)c(Cl)c2)S1(=O)=O (stereo not drawn) | 100
2 | Cc1ccc(C)c(-c2csc(N=NC(C)c3cc4c(ccc5ccccc54)oc3=O)n2)c1 (stereo not drawn) [MLS000559785] | 10.1
3 | Cc1cc2c(c(=O)n1CCc1ccccc1)C(c1ccco1)C(C#N)C(=N)O2 (stereo not drawn) [SMR000149533] | 100
